Assay: Photophysical characterization: absorption maxima and extinction coefficients (Lambda 2-spectrometer)
Format: physicochemical
Procedure: The determination of the absorption maxima and extinction coefficients was carried out with a Lambda 2-spectrometer (Perkin-Elmer Company). The fluorescence properties were determined on a SPEX-fluorolog (Instruments S. A. Company, photomultiplier Hamamatsu PM928, excitation 350W xenon lamp). the determination of the fluorescence quantum yield was carried out relative to indocyanine green (O=13% in DMSO) by excitation at 585 nm (dyes with p=2) or 685 nm (dyes with p=3), in each case of solutions of concentration 2 μM in dye, and correction with the spectral sensitivity of lamp and detector.

[1] = dyes 7-14 table, formulation with Gd-complex perfluoroalkyl derivative (WO 97/26017 Ex. 33), 5 mol % of dye
[2] = formulation with Gd-complex perfluoroalkyl derivative (WO 97/26017 Ex. 33), 1 mol % of dye
[3] = formulation with Gd-complex perfluoroalkyl derivative (WO 97/26017 Ex. 33), 2 mol % of dye
[4] = formulation with Gd-complex perfluoroalkyl derivative (WO 97/26017 Ex. 33), 5 mol % of dye
[5] = formulation with Gd-complex perfluoroalkyl derivative (WO 97/26017 Ex. 33), 10 mol % of dye
[6] = three-component formulation: 5 mol % of dye, 0 mol % of Gd complex, 95 mol % of monosaccharide
[7] = three-component formulation: 5 mol % of dye, 10 mol % of Gd complex, 85 mol % of monosaccharide
[8] = three-component formulation: 5 mol % of dye, 30 mol % of Gd complex, 65 mol % of monosaccharide
[9] = three-component formulation: 5 mol % of dye, 50 mol % of Gd complex, 45 mol % of monosaccharide
[10] = three-component formulation: 5 mol % of dye, 70 mol % of Gd complex, 25 mol % of monosaccharide
[11] = three-component formulation: 5 mol % of dye, 90 mol % of Gd complex, 5 mol % of monosaccharide

Absorption max. [1]: 753 nm | Extinction coefficient [1]: 120,800 L mol^−1 cm^−1 | Absorption max. [2]: 755 nm | Extinction coefficient [2]: 150,500 L mol^−1 cm^−1 | Absorption max. [3]: 755 nm | Extinction coefficient [3]: 148,800 L mol^−1 cm^−1 | Absorption max. [4]: 753 nm | Extinction coefficient [4]: 120,800 L mol^−1 cm^−1 | Absorption max. [5]: 751 nm | Extinction coefficient [5]: 108,500 L mol^−1 cm^−1 | Absorption maximum [6]: 760 nm | Extinction coefficient [6]: 90500 L/mol/cm | Absorption maximum [7]: 760 nm | Extinction coefficient [7]: 102700 L/mol/cm | Absorption maximum [8]: 760 nm | Extinction coefficient [8]: 107900 L/mol/cm | Absorption maximum [9]: 756 nm | Extinction coefficient [9]: 108700 L/mol/cm | Absorption maximum [10]: 756 nm | Extinction coefficient [10]: 111100 L/mol/cm | Absorption maximum [11]: 755 nm | Extinction coefficient [11]: 112500 L/mol/cm
Compound: CC1(C)C(=CC=CC=CC=CC2=[N+](CCCCS(=O)(=O)[O-])c3ccc(C(=O)N(CCOCCC(F)(F)C(F)(F)C(F)(F)C(F)(F)C(F)(F)C(F)(F)C(F)(F)C(F)(F)F)CC(O)CO)cc3C2(C)C)N(CCCCS(=O)(=O)[O-])c2ccccc21.[Na+] (stereo not shown) [Dye 10, 5-{N-[2-(3,3,4,4,5,5,6,6,7,7,8,8,9,9,10,10,10-heptadecafluorodecyloxy)ethyl]-N-(2,3-dihydroxypropyl)aminocarbonyl}-2-{7-[1,3-dihydro-3,3-dimethyl-1-(4-sulfobutyl)-2H-indol-2-ylidene]-1,3,5-heptatrienyl}-3,3-dimethyl-1-(4-sulfobutyl)-3H-indolium, internal salt, sodium salt]

Source: patent US6447749B1, “Perfluoro-alkyl containing dye molecules and galencial formulations” (Schering Aktiengesellschaft, priority 1999, dated 2002)
